Several values for one entry are separate records, joined by “and”; a condition that tells them apart may be missing. Equal values may be shown once.
Key:
[1] = tested on: PZA-resistant strain (PZA^R) (#6 PncA mutation L159P); assay type: cell-based, Mycobacterium tuberculosis; settings: pH 6.8
[2] = tested on: five PZA resistant M. tuberculosis strains; assay: microbe, parasite or virus in culture; assay type: cell-based; settings: Mycobacterium tuberculosis, 504 h, pH 6.8, read-out: MIC for PZA
[3] = tested on: ORA136 PZA-resistant strain with mutation in panD gene; assay type: cell-based, Mycobacterium tuberculosis
[4] = tested on: ORA76 PZA-resistant strain with mutation in panD gene; assay type: cell-based, Mycobacterium tuberculosis
[5] = tested on: ORA48 PZA-resistant strain with mutation in panD gene; assay type: cell-based, Mycobacterium tuberculosis
[6] = tested on: Z6 PZA-resistant strain with mutation in pncA gene; assay type: cell-based, Mycobacterium tuberculosis
[7] = tested on: Z98 PZA-resistant strain with mutation in pncA gene; assay type: cell-based, Mycobacterium tuberculosis
[8] = tested on: M. tuberculosis PZA-resistant strains #6, #78, #98, #106, #186; assay type: cell-based; settings: PZA-S1-Plus agar, pH 6.8, 400, 800 and 1600 μg PZA
[9] = tested on: Z186 PZA-resistant strain with mutation in pncA gene; assay type: cell-based, Mycobacterium tuberculosis

`NC(=O)c1cnccn1` [PZA, Pyrazinamide] was tested, and the “PZA concentration at which the resistant strain grew” value [1] was 800 µg/mL, the MIC [2] was over 800 mg/L and the “MIC of PZA” value [3] was “greater than 300 μg/ml”. For the same molecule, the “Percentage of CFU to Z 0” value [3] was 3.70% and 4.19% and 3.37% and 2.56%, the “MIC of PZA” value [4] was “greater than 300 μg/ml” and the “Percentage of CFU to Z 0” value [4] was 2.26% and 1.83% and 2.33% and 2.31%. For the same molecule, the “MIC of PZA” value [5] was “greater than 300 μg/ml”, the “Percentage of CFU to Z 0” value [5] was 3.74% and 3.48% and 3.39% and 3.00% and the “MIC of PZA” value [6] was “greater than 300 μg/ml”. The “Percentage of CFU to Z 0” value [6] was 9.33% and 10.00% and 8.65% and 12.47%, the “MIC of PZA” value [7] was “greater than 300 μg/ml” and the “Percentage of CFU to Z 0” value [7] was 6.76% and 6.62% and 5.15% and 5.81%. The “growth inhibition, paper disk” value [8] was “no inhibition”, the “MIC of PZA” value [9] was “greater than 300 μg/ml” and the “Percentage of CFU to Z 0” value [9] was 1.07% and 1.09% and 1.01% and 1.08%.
